By Ki is commonly meant a measure of affinity in units of concentration, obtained from inhibition or displacement.

Among the data in patent US8461328B2, “Tricyclic heterocyclic compounds, compositions and methods of use thereof” (Genentech, Inc., priority 2010, dated 2013) are Ki values, retold here.

Structures are written as SMILES.

Holding throughout (assay type): biochemical
One experiment has as its target T1, JAK1 (Homo sapiens, UniProt P23458).
T1 construct: made in house; host or cells: SF9 insect cells (baculovirus)
The experiment in a line: JAK1 inhibition (Table 4). To be noted: read-out: JAK1 Ki.

Another experiment deals with T2, JAK2 (Homo sapiens, UniProt O60674).
T2 construct: made in house; host or cells: SF9 insect cells (baculovirus)
In words: JAK2 inhibition (Table 4). To be noted: read-out: JAK2 Ki.

The target in another experiment is T3, JAK3 (Homo sapiens, UniProt P52333).
T3 construct: made in house; host or cells: SF9 insect cells (baculovirus)
The experiment in a line: JAK3 inhibition (Table 4). Particulars: read-out: JAK3 Ki.

Another experiment concerns the target T4, TYK2 (Homo sapiens, UniProt P29597).
T4 construct: made in house; host or cells: SF9 insect cells (baculovirus)
T4 sequence (P29597 873-1187): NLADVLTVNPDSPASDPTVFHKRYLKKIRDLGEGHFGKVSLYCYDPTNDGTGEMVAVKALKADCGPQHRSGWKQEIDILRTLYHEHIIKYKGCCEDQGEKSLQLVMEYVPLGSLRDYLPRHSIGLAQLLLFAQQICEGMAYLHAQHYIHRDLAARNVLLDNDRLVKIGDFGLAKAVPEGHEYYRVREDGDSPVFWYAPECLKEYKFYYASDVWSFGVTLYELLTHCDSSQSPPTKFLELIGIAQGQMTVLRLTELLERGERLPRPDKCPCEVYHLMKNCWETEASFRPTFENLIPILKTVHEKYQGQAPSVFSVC
In words: TYK2 inhibition (Table 4).

T2 sequence (O60674 812-1132): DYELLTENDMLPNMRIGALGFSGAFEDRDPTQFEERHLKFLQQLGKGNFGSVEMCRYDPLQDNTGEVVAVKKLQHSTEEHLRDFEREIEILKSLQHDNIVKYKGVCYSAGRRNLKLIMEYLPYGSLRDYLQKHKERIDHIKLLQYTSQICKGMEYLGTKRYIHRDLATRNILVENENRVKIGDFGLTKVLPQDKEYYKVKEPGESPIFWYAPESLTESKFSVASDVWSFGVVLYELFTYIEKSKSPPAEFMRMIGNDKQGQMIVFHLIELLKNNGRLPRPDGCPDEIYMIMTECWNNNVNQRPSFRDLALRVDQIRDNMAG
T1 sequence (P23458 852-1154): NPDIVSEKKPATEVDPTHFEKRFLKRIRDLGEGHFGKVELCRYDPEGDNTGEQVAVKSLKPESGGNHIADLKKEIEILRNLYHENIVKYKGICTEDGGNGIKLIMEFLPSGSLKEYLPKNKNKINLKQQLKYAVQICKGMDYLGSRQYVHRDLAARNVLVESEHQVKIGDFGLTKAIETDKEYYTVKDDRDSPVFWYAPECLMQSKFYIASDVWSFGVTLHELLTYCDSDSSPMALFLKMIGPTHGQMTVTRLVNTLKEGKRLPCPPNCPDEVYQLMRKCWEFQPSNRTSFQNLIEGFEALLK
T3 sequence (P52333 783-1124): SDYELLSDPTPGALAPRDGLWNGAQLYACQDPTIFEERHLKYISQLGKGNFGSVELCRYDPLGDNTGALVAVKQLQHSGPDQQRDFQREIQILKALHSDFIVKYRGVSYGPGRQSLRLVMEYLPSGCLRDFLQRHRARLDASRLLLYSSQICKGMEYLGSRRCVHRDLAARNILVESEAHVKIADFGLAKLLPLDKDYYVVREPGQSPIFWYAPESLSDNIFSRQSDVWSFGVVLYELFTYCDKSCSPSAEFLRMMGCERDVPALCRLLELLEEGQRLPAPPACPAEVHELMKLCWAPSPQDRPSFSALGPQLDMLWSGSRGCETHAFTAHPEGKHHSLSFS

As to `N#CCCN1CCC(n2c(CCNC(=O)C3CC3)nc3cnc4[nH]ccc4c32)CC1` [Example 377, Cyclopropanecarboxylic acid (2-{1-[1-(2-cyano-ethyl)-piperidin-4-yl]-1,6-dihydro-1,3,5,6-tetraaza-as-indacen-2-yl}-ethyl)-amide], the Ki at JAK1 came to 3.64 nM; at JAK2 it was 29.5 nM; on JAK3 it was 50.3 nM; at TYK2, 185 nM.

For `CC(=O)N1CCC(c2nc3cnc4[nH]ccc4c3n2C2CCN(C(C)CC#N)CC2)C1` (racemic) [Example 397, 3-{4-[2-(1-Acetyl-pyrrolidin-3-yl)-6H-1,3,5,6-tetraaza-as-indacen-1-yl]-piperidin-1-yl}-butyronitrile], the Ki at JAK1 is 29.9 nM; on JAK2 it was 62.4 nM; at JAK3, 114 nM; at TYK2, 269 nM.

Turning to `CS(=O)(=O)CCN1CCC(n2cnc3cnc4[nH]ccc4c32)CC1` [Example 59, 1-[1-(2-Methanesulfonyl-ethyl)-piperidin-4-yl]-1,6-dihydro-1,3,5,6-tetraaza-as-indacene], the Ki at JAK1 worked out at 1.96 nM; at JAK2 it was 6.01 nM; on JAK3, 27.7 nM; on TYK2, 30.5 nM.

For `COC1CN(C)CCC1n1c(C)nc2cnc3[nH]ccc3c21` (racemic) [Example 534, 1-(3-Methoxy-1-methyl-piperidin-4-yl)-2-methyl-1,6-dihydro-1,3,5,6-tetraaza-as-indacene], the Ki on JAK1 turned out to be 9.86 nM; on JAK2, 24.4 nM; on JAK3 it was 88.9 nM; at TYK2, 150 nM.

For `O=C(O)[C@H]1C[C@@H](n2cnc3cnc4[nH]ccc4c32)C1` [Example 484, 3-(6H-1,3,5,6-Tetraaza-as-indacen-1-yl)-cyclobutanecarboxylic acid], the Ki on JAK1 turned out to be 441 nM; at JAK2, 181 nM; at JAK3, 323 nM; on TYK2, 1290 nM.

Consider `O=C1OC(CO)CN1[C@H]1CC[C@H](n2cnc3cnc4[nH]ccc4c32)CC1` (stereo partly drawn) [Example 602, Trans 5-hydroxymethyl-3-[4-(6H-1,2,3,5,6-tetraaza-as-indacen-1-yl)-cyclohexyl]-oxazolidin-2-one], for which the Ki turned out to be 1.67 nM on JAK1, 2.41 nM on JAK2, 56.7 nM at JAK3 and 12.7 nM on TYK2.

Turning to `c1cc2c(ncc3nc([C@H]4CCCN4)n([C@H]4CCCOC4)c32)[nH]1` [Example 667, 2-(R)-Pyrrolidin-2-yl-1-(S)-tetrahydro-pyran-3-yl-1,6-dihydro-1,2,3,5,6-tetraaza-as-indacene], the Ki came out at 114 nM on JAK1, 467 nM on JAK2, 895 nM at JAK3 and 519 nM at TYK2.

Regarding `c1cnc(N2CCC(n3cnc4cnc5[nH]ccc5c43)CC2)nc1` [Example 64, 1-(1-Pyrimidin-2-yl-piperidin-4-yl)-1,6-dihydro-1,3,5,6-tetraaza-as-indacene], the Ki on JAK1 came to 36.4 nM; on JAK2, 51.4 nM; at JAK3 it was 243 nM; at TYK2, 495 nM.

As to `C[C@@H](O)c1nc2cnc3[nH]ccc3c2n1[C@H]1CCN(CCC#N)C1` [Example 893, 3-{(S)-3-[2-((R)-1-Hydroxy-ethyl)-6H-1,3,5,6-tetraaza-as-indacen-1-yl]-pyrrolidin-1-yl}-propionitrile], the Ki stood at 4.9 nM at JAK1, 49.2 nM at JAK2, 60.7 nM on JAK3 and 9.49 nM at TYK2.

Take `N#CCCN1CCC(n2c(CNC(=O)c3cccnc3)nc3cnc4[nH]ccc4c32)CC1` [Example 494, N-{1-[1-(2-Cyano-ethyl)-piperidin-4-yl]-1,6-dihydro-1,3,5,6-tetraaza-as-indacen-2-ylmethyl}-nicotinamide]: the Ki on JAK1 worked out at 4.73 nM; at JAK2, 23.5 nM; on JAK3, 18.6 nM; on TYK2, 61.2 nM.

As to `CS(=O)(=O)NCc1nc2cnc3[nH]ccc3c2n1C1CC2CCC1O2` (single isomer, unassigned) [Example 849, endo-N-[1-(7-Oxa-bicyclo[2.2.1]hept-2-yl)-1,6-dihydro-1,3,5,6-tetraaza-as-indacen-2-ylmethyl]-methanesulfonamide], the Ki at JAK1 is 50.8 nM; at JAK2, 515 nM; on JAK3, 592 nM; on TYK2, 459 nM.

Regarding `CC(=O)NCCc1nc2cnc3[nH]ccc3c2n1[C@H]1CCCOC1` [Example 856, (S)—N-{2-[1-(Tetrahydro-pyran-3-yl)-1,6-dihydro-1,3,5,6-tetraaza-as-indacen-2-yl]-ethyl}-acetamide], the Ki on JAK1 stood at 5.96 nM; at JAK2, 121 nM; at JAK3, 276 nM; on TYK2 it was 259 nM.

Regarding `CC(C)(C#N)CN1CCC(n2cnc3cnc4[nH]ccc4c32)CC1` [Example 586, 2,2-Dimethyl-3-[4-(6H-1,2,3,5,6-tetraaza-as-indacen-1-yl)-piperidin-1-yl]-propionitrile], the Ki was 1.09 nM at JAK1, 1.6 nM on JAK2, 23.3 nM on JAK3 and 9.73 nM on TYK2.

With `Cc1nc2cnc3[nH]ccc3c2n1[C@H]1CC[C@H](N)CC1` [Example 273, 4-(2-Methyl-6H-1,3,5,6-tetraaza-as-indacen-1-yl)-cyclohexylamine], the Ki on JAK1 was found to be 5.29 nM; at JAK2, 18.9 nM; at JAK3, 19.2 nM; on TYK2, 48.4 nM.

With `CC(CC#N)N1CCC(n2cnc3cnc4[nH]ccc4c32)CC1` (racemic) [Example 305, 3-[4-(6H-1,3,5,6-Tetraaza-as-indacen-1-yl)-piperidin-1-yl]-butyronitrile], the inhibition constant (Ki) on JAK1 came out at 0.78 nM; at JAK2, 0.93 nM; on JAK3, 17 nM; at TYK2, 3.7 nM.

`CC(CC#N)N1CCC(n2c(CNS(C)(=O)=O)nc3cnc4[nH]ccc4c32)CC1` (racemic) [Example 507, N-{1-[1-(2-Cyano-1-methyl-ethyl)-piperidin-4-yl]-1,6-dihydro-1,3,5,6-tetraaza-as-indacen-2-ylmethyl}-methanesulfonamide]: the Ki turned out to be 11.1 nM at JAK1, 40.2 nM on JAK2, 69.4 nM on JAK3 and 102 nM on TYK2.

Regarding `O=C(NC1CCC(n2cnc3cnc4[nH]ccc4c32)CC1)N1CCC1` (stereo not shown) [Example 746, azetidine-1-carboxylic acid [4-(6H-1,3,5,6-tetraaza-as-indacen-1-yl)-cyclohexyl]-amide], the Ki at JAK1 turned out to be 13.1 nM; at JAK2, 21.3 nM; on JAK3, 183 nM; at TYK2, 75.4 nM.

Take `CC1(C(=O)N2CCC[C@@H](n3cnc4cnc5[nH]ccc5c43)C2)CC1` [Example 227, (1-Methyl-cyclopropyl)-[(R)-3-(6H-1,3,5,6-tetraaza-as-indacen-1-yl)-piperidin-1-yl]-methanone]: the Ki at JAK1 is 6.41 nM; at JAK2, 3.16 nM; on JAK3 it was 83 nM; at TYK2 it was 12.5 nM.

As for `Cc1nc2cnc3[nH]ccc3c2n1C1CCN(Cc2ccccc2)CC1(F)F` (racemic) [Example 428, 1-(1-Benzyl-3,3-difluoro-piperidin-4-yl)-2-methyl-1,6-dihydro-1,3,5,6-tetraaza-as-indacene], the Ki at JAK1 turned out to be 0.64 nM; on JAK2, 0.78 nM; at JAK3 it was 1.62 nM; at TYK2, 12.7 nM.
